How the values were obtained:
[1] = target: Kynurenine--oxoglutarate transaminase 1 (Rattus norvegicus) (UniProt Q08415); assay: Ratio of Vmax and Km for elimination of conjugates by rat renal cytosol
[2] = target: Kynurenine--oxoglutarate transaminase 1 (Rattus norvegicus) (UniProt Q08415); assay: Specific activity against beta-elimination reaction by rat renal cytosolic beta-lyase after incubation with 0.2 mg of protein/mL for 10 min at 37 degree C using 1 mM substrate conc.

Sequence of Kynurenine--oxoglutarate transaminase 1 (Rattus norvegicus) (Q08415 whole entry, looked up): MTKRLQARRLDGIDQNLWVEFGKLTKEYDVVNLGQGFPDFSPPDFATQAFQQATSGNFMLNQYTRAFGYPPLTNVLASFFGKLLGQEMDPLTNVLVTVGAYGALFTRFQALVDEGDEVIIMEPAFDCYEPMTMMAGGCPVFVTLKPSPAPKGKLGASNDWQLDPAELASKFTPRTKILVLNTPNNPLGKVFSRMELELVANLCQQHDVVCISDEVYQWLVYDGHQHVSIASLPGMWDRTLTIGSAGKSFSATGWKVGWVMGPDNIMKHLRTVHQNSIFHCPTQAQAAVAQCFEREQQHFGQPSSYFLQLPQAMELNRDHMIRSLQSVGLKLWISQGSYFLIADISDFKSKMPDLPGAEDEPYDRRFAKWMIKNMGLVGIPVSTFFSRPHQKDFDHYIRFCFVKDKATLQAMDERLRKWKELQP

SMILES | Vmax / Km (nM min-1 mg-1 mM-1) [1] | Specific activity (nM min-1 mg-1) [2]
CCCC[Se]C[C@H](N)C(=O)O | 1.8 | 0.9
CC(C)[Se]C[C@H](N)C(=O)O | 66.9 | 14.9
C[Se]C[C@H](N)C(=O)O |  | 4
CCSC[C@H](N)C(=O)O |  | 0.1
N[C@@H](C[Se]Cc1ccc(Cl)cc1)C(=O)O | 68.4 | 11.6
CCC[Se]CC(N)C(=O)O (single isomer, unassigned) | 25.7 | 8
N[C@@H](C[Se]Cc1ccccc1)C(=O)O | 70 | 9.8
COc1ccc([Se]C[C@H](N)C(=O)O)cc1 | 14 | 4.3
N[C@@H](CSc1ccccc1)C(=O)O |  | 0.2
Cc1ccc([Se]C[C@H](N)C(=O)O)cc1 |  | 0.1
N[C@@H](C[Se]c1ccccc1)C(=O)O | 44.2 | 13.8
Cc1ccc(CSC[C@H](N)C(=O)O)cc1 |  | 0.3
COc1ccc(C[Se]C[C@H](N)C(=O)O)cc1 | 44.9 | 10.2
N[C@@H](CSCc1ccccc1)C(=O)O |  | 0.2
COc1ccc(CSC[C@H](N)C(=O)O)cc1 |  | 0.1
N[C@@H](C[Se]Cc1ccc(Cl)c(Cl)c1)C(=O)O | 49 | 12.3
CC[Se]C[C@H](N)C(=O)O | 21.8 | 11
CCC[Se]C[C@H](N)C(=O)O |  | 3.3
Cc1ccc([Se]CC(N)C(=O)O)cc1 (single isomer, unassigned) | 16.7 | 3.8
Cc1ccc(C[Se]C[C@H](N)C(=O)O)cc1 |  | 4.9
C[Se]CC(N)C(=O)O (single isomer, unassigned) | 13.2 | 7.1
Cc1ccc(C[Se]CC(N)C(=O)O)cc1 (single isomer, unassigned) | 70.2 | 13.1
N[C@@H](C[Se]c1ccc(Cl)cc1)C(=O)O | 16.7 | 5.2
